Source: ChEMBL document CHEMBL1201862, “PubChem BioAssay data set” (2004)
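Results reflect a 48-hour exposure of cells in 96-well plates to compound at five concentrations. GI50 is the concentration that inhibits growth by half.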 The source made the active and inactive calls. Rule as the data show it: active = GI50 up to about 1.1 µM and inactive = higher.

Columns and labels:
Test in all cases: DTP human tumour cell line panel, 48 h
[1] = tested on: NCI-H23
[2] = tested on: SK-MEL-5
[3] = tested on: SF-268
[4] = tested on: OVCAR-5
[5] = tested on: BT-549
[6] = tested on: PC-3
[7] = tested on: SNB-19
[8] = tested on: SW-620
[9] = tested on: OVCAR-8
[10] = tested on: SK-OV-3
[11] = tested on: MDA-N
[12] = tested on: UACC-257
[13] = tested on: NCI-H522
[14] = tested on: SK-MEL-2
[15] = tested on: SN12C
[16] = tested on: DU-145
[17] = tested on: IGROV-1
[18] = tested on: CCRF-CEM
[19] = tested on: EKVX
[20] = tested on: HCT-116
[21] = tested on: SNB-75
[22] = tested on: M14
[23] = tested on: RXF 393
[24] = tested on: NCI-H226
[25] = tested on: HOP-62
[26] = tested on: SR
[27] = tested on: A549
[28] = tested on: MOLT-4
[29] = tested on: TK-10
[30] = tested on: A498
[31] = tested on: SF-295
[32] = tested on: OVCAR-3
[33] = tested on: RPMI-8226
[34] = tested on: NCI-H460
[35] = tested on: SF-539
[36] = tested on: MCF7
[37] = tested on: LOX IMVI
[38] = tested on: T47D
[39] = tested on: OVCAR-4
[40] = tested on: CAKI-1
[41] = tested on: SK-MEL-28
[42] = tested on: HOP-92
[43] = tested on: K562
[44] = tested on: NCI/ADR-RES
[45] = tested on: 786-0
[46] = tested on: UO-31
[47] = tested on: HCT-15
[48] = tested on: HL-60
[49] = tested on: Malme-3M
[50] = tested on: HT-29
[51] = tested on: HCC 2998
[52] = tested on: COLO 205
[53] = tested on: U-251
[54] = tested on: ACHN
[55] = tested on: Hs-578T
[56] = tested on: KM12
[57] = tested on: UACC-62
[58] = tested on: MDA-MB-435
[59] = tested on: MDA-MB-231

## Cn1c2ccc3cc2c(=S)c2cc(ccc21)OCCOCCOCCOCCOCCOCCO3
[1]
  GI50: > 10 µM (inactive)
[2]
  GI50: > 10 µM (inactive)
[3]
  GI50: > 10 µM (inactive)
[4]
  GI50: > 10 µM (inactive)
[5]
  GI50: > 10 µM (inactive)
[6]
  GI50: > 10 µM (inactive)
[7]
  GI50: > 10 µM (inactive)
[8]
  GI50: > 10 µM (inactive)
[9]
  GI50: > 10 µM (inactive)
[10]
  GI50: > 10 µM (inactive)
[11]
  GI50: > 10 µM (inactive)
[12]
  GI50: > 10 µM (inactive)
[13]
  GI50: > 10 µM (inactive)
[14]
  GI50: > 10 µM (inactive)
[15]
  GI50: > 10 µM (inactive)
[16]
  GI50: > 10 µM (inactive)
[17]
  GI50: > 10 µM (inactive)
[18]
  GI50: > 10 µM (inactive)
[19]
  GI50: > 10 µM (inactive)
[20]
  GI50: > 10 µM (inactive)
[21]
  GI50: > 10 µM (inactive)
[22]
  GI50: > 10 µM (inactive)
[23]
  GI50: > 10 µM (inactive)
[24]
  GI50: > 10 µM (inactive)
[25]
  GI50: > 10 µM (inactive)
[26]
  GI50: > 10 µM (inactive)
[27]
  GI50: > 10 µM (inactive)
[28]
  GI50: > 10 µM (inactive)
[29]
  GI50: > 10 µM (inactive)
[30]
  GI50: > 10 µM (inactive)
[31]
  GI50: > 10 µM (inactive)
[32]
  GI50: > 10 µM (inactive)
[33]
  GI50: > 10 µM (inactive)
[34]
  GI50: > 10 µM (inactive)
[35]
  GI50: > 10 µM (inactive)
[36]
  GI50: > 10 µM (inactive)
[37]
  GI50: > 10 µM (inactive)
[38]
  GI50: > 10 µM (inactive)
[39]
  GI50: > 10 µM (inactive)
[40]
  GI50: > 10 µM (inactive)
[41]
  GI50: > 10 µM (inactive)
[42]
  GI50: > 10 µM (inactive)
[43]
  GI50: > 10 µM (inactive)
[44]
  GI50: > 10 µM (inactive)
[45]
  GI50: > 10 µM (inactive)
[46]
  GI50: > 10 µM (inactive)
[47]
  GI50: > 10 µM
[48]
  GI50: > 10 µM (inactive)
[49]
  GI50: > 10 µM (inactive)
[50]
  GI50: > 10 µM (inactive)
[51]
  GI50: > 10 µM (inactive)
[52]
  GI50: > 10 µM (inactive)
[53]
  GI50: > 10 µM (inactive)
[54]
  GI50: > 10 µM (inactive)
[55]
  GI50: > 10 µM (inactive)
[56]
  GI50: > 10 µM (inactive)

## O=S(=O)(SC1=NCCN1)c1ccc2ccccc2c1
[1]
  GI50: 22.9 µM (inactive)
[2]
  GI50: 26.5 µM (inactive)
[3]
  GI50: 23.2 µM (inactive)
[57]
  GI50: 30.1 µM (inactive)
[4]
  GI50: 18.8 µM (inactive)
[5]
  GI50: 24.5 µM (inactive)
[6]
  GI50: 30.7 µM (inactive)
[7]
  GI50: 20.2 µM (inactive)
[58]
  GI50: 20.7 µM (inactive)
[8]
  GI50: 19.7 µM (inactive)
[9]
  GI50: 20.7 µM (inactive)
[10]
  GI50: 22.6 µM (inactive)
[11]
  GI50: 19.8 µM (inactive)
[12]
  GI50: 39.4 µM (inactive)
[13]
  GI50: 17.4 µM (inactive)
[14]
  GI50: 24.8 µM (inactive)
[15]
  GI50: 24.4 µM (inactive)
[16]
  GI50: 32 µM (inactive)
[17]
  GI50: 31 µM (inactive)
[18]
  GI50: 21 µM (inactive)
[19]
  GI50: 33.2 µM (inactive)
[20]
  GI50: 22.5 µM (inactive)
[21]
  GI50: 25.2 µM (inactive)
[22]
  GI50: 23.3 µM (inactive)
[23]
  GI50: 24.3 µM (inactive)
[24]
  GI50: 28.9 µM (inactive)
[25]
  GI50: 23.3 µM (inactive)
[27]
  GI50: 26.8 µM (inactive)
[28]
  GI50: 24.8 µM (inactive)
[29]
  GI50: 89.1 µM (inactive)
[30]
  GI50: 92.7 µM (inactive)
[59]
  GI50: 17.2 µM (inactive)
[31]
  GI50: 24.8 µM (inactive)
[32]
  GI50: 27.5 µM (inactive)
[33]
  GI50: 26.4 µM (inactive)
[34]
  GI50: 21.6 µM (inactive)
[35]
  GI50: 23.8 µM (inactive)
[36]
  GI50: 29.4 µM (inactive)
[37]
  GI50: 31.4 µM (inactive)
[38]
  GI50: 81.7 µM (inactive)
[39]
  GI50: 52.4 µM (inactive)
[40]
  GI50: 95.1 µM (inactive)
[41]
  GI50: 34.8 µM (inactive)
[42]
  GI50: 51.1 µM (inactive)
[43]
  GI50: 22.7 µM (inactive)
[44]
  GI50: 21.8 µM (inactive)
[45]
  GI50: 28.1 µM (inactive)
[46]
  GI50: 29.4 µM (inactive)
[47]
  GI50: 25.1 µM
[48]
  GI50: 16.3 µM (inactive)
[49]
  GI50: 72.6 µM (inactive)
[50]
  GI50: 20 µM (inactive)
[51]
  GI50: 20.6 µM (inactive)
[52]
  GI50: 18.7 µM (inactive)
[53]
  GI50: 23.8 µM (inactive)
[54]
  GI50: 39.5 µM (inactive)
[55]
  GI50: 35.6 µM (inactive)
[56]
  GI50: 20.2 µM (inactive)
